Reference: article PMC5708365, “Histone lysine methyltransferase structure activity relationships that allow for segregation of G9a inhibition and anti-Plasmodium activity” (MedChemComm, 2017)

Biological target: T1, G9a (Homo sapiens, UniProt Q96KQ7)
T1 sequence (Q96KQ7 1-1210): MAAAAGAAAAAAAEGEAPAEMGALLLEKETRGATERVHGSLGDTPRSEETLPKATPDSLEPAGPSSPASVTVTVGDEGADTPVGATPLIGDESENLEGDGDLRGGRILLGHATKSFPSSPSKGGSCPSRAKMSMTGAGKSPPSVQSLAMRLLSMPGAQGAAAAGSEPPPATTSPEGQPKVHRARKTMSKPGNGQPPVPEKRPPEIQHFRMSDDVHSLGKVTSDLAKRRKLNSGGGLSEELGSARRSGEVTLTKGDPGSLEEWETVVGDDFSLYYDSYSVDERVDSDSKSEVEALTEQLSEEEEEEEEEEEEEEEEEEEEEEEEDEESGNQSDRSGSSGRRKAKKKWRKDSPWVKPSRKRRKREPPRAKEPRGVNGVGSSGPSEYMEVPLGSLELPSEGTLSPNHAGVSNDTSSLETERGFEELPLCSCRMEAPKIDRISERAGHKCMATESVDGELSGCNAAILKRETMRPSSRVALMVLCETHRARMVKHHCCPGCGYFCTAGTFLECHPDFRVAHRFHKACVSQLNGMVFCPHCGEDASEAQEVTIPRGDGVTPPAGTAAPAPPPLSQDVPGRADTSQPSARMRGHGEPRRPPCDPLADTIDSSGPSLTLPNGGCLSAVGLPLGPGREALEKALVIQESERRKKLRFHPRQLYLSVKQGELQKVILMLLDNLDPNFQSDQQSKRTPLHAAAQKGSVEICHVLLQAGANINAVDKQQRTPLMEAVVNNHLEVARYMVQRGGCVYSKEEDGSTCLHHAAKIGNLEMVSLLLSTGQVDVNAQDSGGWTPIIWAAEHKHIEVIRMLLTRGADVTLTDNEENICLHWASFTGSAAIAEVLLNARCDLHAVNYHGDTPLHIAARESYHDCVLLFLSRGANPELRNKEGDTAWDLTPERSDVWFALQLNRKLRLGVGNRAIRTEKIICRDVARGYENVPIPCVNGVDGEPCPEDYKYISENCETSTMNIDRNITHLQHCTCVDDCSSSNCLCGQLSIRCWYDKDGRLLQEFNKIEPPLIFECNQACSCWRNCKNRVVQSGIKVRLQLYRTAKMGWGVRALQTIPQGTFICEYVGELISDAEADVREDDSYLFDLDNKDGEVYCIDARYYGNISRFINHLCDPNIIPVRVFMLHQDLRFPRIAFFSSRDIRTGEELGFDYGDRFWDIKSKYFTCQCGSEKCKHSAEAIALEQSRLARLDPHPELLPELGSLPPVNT
Details: SPA, 5 nM G9a, H3 1-25 peptide 0.8 μM, 3H-SAM 8 μM

Row | G9a IC50 | SMILES
1 | inactive against G9a | COc1cc2nc(N3CC(C)CC(C)C3)nc(NC3CCN(Cc4ccccc4)CC3)c2cc1OC (stereo not drawn) [compound 14]

Same assay, conditions: read-out: G9a IC50; SPA, 5 nM G9a, H3 1-25 peptide 0.8 μM, 3H-SAM 8 μM

Row | SMILES | IC50
2 | COc1cc2nc(N3CCN(C)CC3)nc(NC3CCN(Cc4cccc(C)c4)CC3)c2cc1OC [compound 18] | 116 nM
3 | COc1cc2nc(N3CCN(C)CC3)nc(NC3CCN(Cc4ccc(C)cc4)CC3)c2cc1OC [compound 19] | 78 nM
4 | COc1cc2nc(N3CCN(C)CC3)nc(NC3CCN(Cc4ccccc4C)CC3)c2cc1OC [compound 20] | 169 nM
5 | COc1cc2nc(N3CCN(C)CC3)nc(NC3CCN(Cc4ccc(F)cc4)CC3)c2cc1OC [compound 21] | 112 nM
6 | COc1cccc(CN2CCC(Nc3nc(N4CCN(C)CC4)nc4cc(OC)c(OC)cc34)CC2)c1 [compound 24] | 128 nM
7 | COc1cc2nc(N3CCCCC3)nc(NC3CCN(Cc4ccccc4C)CC3)c2cc1OC [compound 27] | ~1000 nM
8 | COc1cc2nc(N3CCN(C)CC3)nc(NC3CCCN(Cc4ccccc4)C3)c2cc1OC (stereo not drawn) [compound 30] | ~1000 nM
9 | COc1cc2nc(N3CCN(c4ccccn4)CC3)nc(NC3CCN(Cc4ccccc4)C3)c2cc1OC (stereo not drawn) [compound 34] | ~10000 nM
10 | COc1cc2nc(N3CCCCC3)nc(NC3CCN(C(=O)c4ccccc4)CC3)c2cc1OC [compound 36] | > 10000 nM
11 | COc1cc2nc(N3CCN(C)CC3)nc(NC3CCN(CC4CCCCC4)CC3)c2cc1OC [compound 45] | 25 nM
12 | COc1cc2nc(N3CCCN(C)CC3)nc(NC3CCN(C4CCCCC4)CC3)c2cc1OC [compound 48] | 55 nM
13 | COc1cc2nc(N3CCCN(C)CC3)nc(NC3CCN(C(C)C)CC3)c2cc1OC [compound 51] | 55 nM
14 | COc1cc2nc(N3CCN(C)CC3)nc(NC3CCN(C(C)C)CC3)c2cc1OC [compound 52] | 123 nM

Further lines, results first:

Row | IC50 | SMILES
15 | 332 nM | COc1cc2nc(N3CCCCCC3)nc(NC3CCN(Cc4ccccc4)CC3)c2cc1OC [compound 9]
16 | 1330 nM | COc1cc2nc(N3CCC(C)CC3)nc(NC3CCN(Cc4ccccc4)CC3)c2cc1OC [compound 11]
17 | 576 nM | COc1cc2nc(N3CCC(OC)CC3)nc(NC3CCN(Cc4ccccc4)CC3)c2cc1OC [compound 12]
18 | 506 nM | COc1cc2nc(N3CCC(N(C)C)CC3)nc(NC3CCN(Cc4ccccc4)CC3)c2cc1OC [compound 13]
19 | ~10000 nM | COc1cc2nc(N3CC(C)CC(C)C3)nc(NC3CCN(Cc4ccccc4)CC3)c2cc1OC (stereo not drawn) [compound 14]
20 | > 10000 nM | COc1cc2nc(N3CCC(c4ccccc4)CC3)nc(NC3CCN(Cc4ccccc4)CC3)c2cc1OC [compound 16]
21 | 132 nM | COc1cc2nc(N3CCN(C)CC3)nc(NC3CCN(Cc4cccc(F)c4)CC3)c2cc1OC [compound 22]
22 | 116 nM | COc1cc2nc(N3CCN(C)CC3)nc(NC3CCN(Cc4ccccc4F)CC3)c2cc1OC [compound 23]
23 | 869 nM | COc1cc2nc(N3CCCCC3)nc(NC3CCN(Cc4cccc(C)c4)CC3)c2cc1OC [compound 25]
24 | 690 nM | COc1cc2nc(N3CCCCC3)nc(NC3CCN(Cc4ccc(C)cc4)CC3)c2cc1OC [compound 26]
25 | 1210 nM | COc1cc2nc(N3CCCCC3)nc(NC3CCN(Cc4ccc(F)cc4)CC3)c2cc1OC [compound 28]
26 | ~1000 nM | COc1cc2nc(N3CCCCC3)nc(NC3CCN(Cc4cccc(F)c4)CC3)c2cc1OC [compound 29]
27 | ~1000 nM | COc1cc2nc(N3CCCCC3)nc(NC3CCCN(Cc4ccccc4)C3)c2cc1OC (stereo not drawn) [compound 31]
28 | 830 nM | COc1cc2nc(N3CCCCC3)nc(NC3CCN(Cc4ccccc4)C3)c2cc1OC (stereo not drawn) [compound 33]
29 | > 10000 nM | COc1cc2nc(N3CCN(c4ccccn4)CC3)nc(NC3CCN(C(=O)c4ccccc4)CC3)c2cc1OC [compound 35]
30 | > 1000 nM | COc1cc2nc(N3CC(C)CC(C)C3)nc(NC3CCN(C(C)=O)CC3)c2cc1OC (stereo not drawn) [compound 37]
31 | > 1000 nM | COc1cc2nc(N3CCN(c4ccccn4)CC3)nc(NC3CCN(C)CC3)c2cc1OC [compound 41]
32 | 10 nM | COc1cc2nc(N3CCCN(C)CC3)nc(NC3CCN(CC4CCCCC4)CC3)c2cc1OC [compound 44]
33 | 295 nM | COc1cc2nc(N3CCCCC3)nc(NC3CCN(CC4CCCCC4)CC3)c2cc1OC [compound 46]
